Read-outs that look alike come from different tables or passages of the source. Values belong to the molecule of their own block, whether it stands above or below them.
What was measured:
[1] = PK data for BTK CTMs (in vivo plasma concentrations); conditions: for Vd: read-out: Volume of Distribution
Source text: The present example evaluates in vivo plasma concentrations of BTK CTMs to develop PK-PD-efficacy relationship and predict human exposure.

[2] = system: CRBN neo-substrates; experiment: CRBN neo-substrate levels / IMiD activity in MOLT4 and TMD8 cells (FIGS. 10-12); format: cell-based; conditions: for effects on CRBN neo-substrate levels: after twenty-four hours, TMD8 and/or MOLT4 cells, FIGS. 10A and 10B; for IMiD activity: FIG. 12
Source text: FIGS. 10A and 10B provide effects of compounds 73, 72, 121, and 44, and control compounds, on neo-substrate and ITK or BTK levels after twenty-four hours in MOLT4 cells (FIG. 10A) and TMD8 cells (FIG. 10B).
FIGS. 11A and 11B provide effects of compounds 44, 72, and 149, and control compounds, on CRBN neo-substrate and ITK levels in MOLT4 cells (FIG. 11A) and TMD8 cells (FIG. 11B).
FIG. 12 provides effects of compounds 130, 149, and 44 on ITK levels and IMiD activity.

[3] = system: TMD8 C481S cells; experiment: Cell viability assay (CellTiter-Glo), TMD8 C481S cells; conditions: for EC50: Homo sapiens, TMD8, 72 h; for EMAX (% viable cells): TMD8 C481S cells, treatment time 72 h
Procedure: Cell viability was determined using CellTiter-Glo 2.0 Luminescent Cell Viability Assay (Promega, G9242), which quantitates the amount of ATP present as a proxy for the number of viable cells in culture. Cells were plated with densities between 2000-4000 cells per well in 96-well plates. […] CellTiter-Glo reagent was added to cells at a dilution of 1:20, and the plate was incubated ten minutes at room temperature prior to reading the luminescence signal using an EnVision plate reader. Controls included cells treated with DMSO and wells that contained no cells, only media. Background luminescence signal was determined by control wells containing no cells, only media, and was then subtracted from all sample wells. Luminescence values were then normalized to DMSO-treated wells and reported at proportion viable cells.

[4] = system: B cell receptor (BCR) signaling; experiment: B cell activation assay (flow cytometry), human B cells; format: cell-based; conditions: treatment 4 h, IgM stimulation 18 h
Procedure: Compound was present throughout the stimulation. Cells were stained with Live/Dead dye (Fisher L34976) and then fluorophore-conjugated antibodies against CD20 (Biolegend 302330), CD3 (BD Pharmingen 557705), CD86 (Biolegend 305416) and CD69 (Biolegend 310906). Stained cells were fixed in PFA and run on an Attune N×T Acoustic Focusing Flow Cytometer (Thermo-Fisher A29004), and data was analyzed using FlowJo (v10.5.3) and GraphPad Prism (v7.00) software. Single live lymphocytes were gated for B cells (CD20+CD3−) and T cells (CD3+CD20−), and the geometric mean fluorescence intensity (MFI) of CD86 and CD69 was calculated for each population. The MFI of the unstimulated sample was used to quantify baseline activation.
This example evaluates whether CTM treatment affects B cell receptor (BCR) signaling. BTK is activated downstream of the B cell receptor and leads to upregulation of activation markers CD86 and CD69 on the surface of B cells.

[5] = system: BTK; experiment: Non-human primate (cyno) DRF PD, BTK remaining in B cells; format: in vivo; conditions: blood, 24 h after previous dose
Procedure: This example evaluates potency and tolerability of BTK CTMs following multiple, consecutive days of dosing and examines potency of compounds for BTK and Aiolos degradation. The data in the table below is from a study in which animals were dosed daily with the designated oral dose. Analysis for BTK and Aiolos levels was performed twenty-four hours following the previous dose.

[6] = system: BTK; experiment: PD data from cyno (BTK degradation); format: in vivo; conditions: blood
Source text: In this example, compounds were profiled for activity in non-mouse species.

[7] = Compound plasma exposure in mouse (CD-1), daily oral dosing, same table as the cyno DRF study; format: in vivo; conditions: CD-1, mouse
[8] = molecular target: BTK (Homo sapiens, UniProt Q06187); experiment: BTK degradation (Total BTK HTRF) in Rec-1 cells (Mantle Cell Lymphoma model); format: cell-based; parameters: endogenous in cells; host or cells: TMD8, Mino, Rec-1; conditions: treatment time 4 h
Procedure: BTK levels were determined using Cisbio Total-BTK HTRF (Homologous Time-Resolved Fluorescence) kit (63ADK064PEG) according to the manufacturer's protocol. Briefly, cells were incubated in 1× supplied lysis buffer for 30 minutes. In an opaque white low volume 96-well plate (Cisbio, 66PL96005), cell lysate was combined with two different specific BTK antibodies, one conjugated with Eu^3+-Cryptate FRET donor and one conjugated with d2 FRET acceptor. Assay controls include wells containing cell lysate with only the Eu^3+-Cryptate FRET donor antibody and wells containing both HTRF antibodies and lysis buffer without cells or control lysate provided by Cisbio. HTRF ratio was calculated as (acceptor signal at 665 nm/donor signal at 620 nm)×10^4. Background HTRF levels were determined from the control well containing the donor, but no acceptor, antibody. Background HTRF levels were subtracted from all samples. Readouts were reported as HTRF levels relative to HTRF levels of DMSO-treated cells. Four-parameter non-linear regressions were performed in GraphPad Prism 7.02 to obtain DC50 values.
This example evaluates the potency of CTMs in a model of Mantle Cell Lymphoma (MCL). To evaluate potential therapeutic indications, BTK CTMs were assayed in models of Mantle Cell Lymphoma as with the TMD8 cells (ABC-DLBCL) above. Tested CTMs had similar potencies for BTK degradation in the MCL cell lines (Mino and Rec-1) and TMD8 cells.

[9] = Rat Sprague-Dawley, 10 mg/kg PO
[10] = Rat Sprague-Dawley, 30 mg/kg PO
[11] = Monkey cynomolgus, 0.75 mg/kg IV
[12] = 30 mg/kg, 30 mg/kg PO, 1 day of dosing
[13] = 30 mg/kg, 30 mg/kg PO, 14 days of dosing
[14] = 100 mg/kg, 100 mg/kg PO, 1 day of dosing
[15] = 100 mg/kg, 100 mg/kg PO, 14 days of dosing
[16] = 300 mg/kg, 300 mg/kg PO, 1 day of dosing
[17] = 300 mg/kg, 300 mg/kg PO, 14 days of dosing

Sequence of BTK (Homo sapiens, UniProt Q06187) (Q06187 whole entry): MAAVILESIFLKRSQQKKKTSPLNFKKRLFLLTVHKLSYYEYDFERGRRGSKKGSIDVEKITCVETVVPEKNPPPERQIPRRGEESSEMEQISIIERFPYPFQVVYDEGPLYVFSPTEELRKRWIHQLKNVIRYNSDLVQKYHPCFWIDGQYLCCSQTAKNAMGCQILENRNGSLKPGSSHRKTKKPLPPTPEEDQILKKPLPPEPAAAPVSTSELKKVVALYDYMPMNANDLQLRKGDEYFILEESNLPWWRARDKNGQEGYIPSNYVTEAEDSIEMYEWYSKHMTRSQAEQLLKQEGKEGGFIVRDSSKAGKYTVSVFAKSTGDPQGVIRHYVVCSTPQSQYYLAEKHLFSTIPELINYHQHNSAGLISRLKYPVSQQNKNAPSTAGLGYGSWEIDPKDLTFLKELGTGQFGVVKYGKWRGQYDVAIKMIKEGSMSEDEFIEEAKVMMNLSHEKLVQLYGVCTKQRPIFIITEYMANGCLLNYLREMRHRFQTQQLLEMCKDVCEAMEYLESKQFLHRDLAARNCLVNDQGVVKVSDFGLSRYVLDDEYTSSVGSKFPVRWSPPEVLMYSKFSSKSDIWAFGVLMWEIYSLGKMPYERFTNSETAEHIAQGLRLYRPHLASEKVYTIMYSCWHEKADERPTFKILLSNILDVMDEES

AUC ([1]; Mouse Balb/c, 1 mg/kg IV): 2.87 µM·h | clearance ([1]; Mouse Balb/c, 1 mg/kg IV): 6.6 mL/min/kg | Vd ([1]; Mouse Balb/c, 1 mg/kg IV): 0.77 L/kg | AUC ([1]; Mouse Balb/c, 30 mg/kg PO): 2.22 µM·h | bioavailability ([1]; Mouse Balb/c, 30 mg/kg PO): 11% | AUC ([1]; Rat Sprague-Dawley, 1 mg/kg IV): 0.919 µM·h | clearance ([1]; Rat Sprague-Dawley, 1 mg/kg IV): 20 mL/min/kg | Vd ([1]; Rat Sprague-Dawley, 1 mg/kg IV): 3.12 L/kg | AUC [1, 9]: 0.083 µM·h | bioavailability [1, 9]: 1% | AUC [1, 10]: 0.73 µM·h
SMILES: CN1CCN([C@@H]2CCCN(c3cnc(C(N)=O)c(Nc4ccc(C5CCN(CC6CCN(c7ccc(-c8nn(C9CCC(=O)NC9=O)c(=O)n8C)cc7)CC6)CC5)cc4)n3)C2)C1=O (some centres unmarked) [Compound 121]
effects on CRBN neo-substrate levels [2]: minimal effects | EC50 [3]: 4.94 nM | EMAX (% viable cells) [3]: 31%

EC50 ([4]; read-out: CD69 EC50): 0.4 nM | EC50 ([4]; read-out: CD86 EC50): 0.5 nM | AUC ([1]; Dog Beagle, 1 mg/kg IV): 0.16 µM·h | clearance ([1]; Dog Beagle, 1 mg/kg IV): 118 mL/min/kg | Vd ([1]; Dog Beagle, 1 mg/kg IV): 56 L/kg | AUC ([1]; Dog Beagle, 10 mg/kg PO): 0.17 µM·h | bioavailability ([1]; Dog Beagle, 10 mg/kg PO): 10% | AUC ([1]; Dog Beagle, 30 mg/kg PO): 0.23 µM·h | AUC [1, 11]: 0.17 µM·h | clearance [1, 11]: 90.9 mL/min/kg | Vd [1, 11]: 16 L/kg | AUC ([1]; Monkey cynomolgus, 10 mg/kg PO): 0.028 µM·h | bioavailability ([1]; Monkey cynomolgus, 10 mg/kg PO): 1% | AUC ([1]; Monkey cynomolgus, 30 mg/kg PO): 0.45 µM·h | AUC ([1]; Mouse Balb/c, 1 mg/kg IV): 3.4 µM·h | clearance ([1]; Mouse Balb/c, 1 mg/kg IV): 6 mL/min/kg | Vd ([1]; Mouse Balb/c, 1 mg/kg IV): 0.72 L/kg | AUC ([1]; Mouse Balb/c, 10 mg/kg PO): 5.81 µM·h | bioavailability ([1]; Mouse Balb/c, 10 mg/kg PO): 17% | AUC ([1]; Mouse Balb/c, 30 mg/kg PO): 2.3 µM·h | AUC ([1]; Mouse CD-1, 1 mg/kg IV): 1.7 µM·h | clearance ([1]; Mouse CD-1, 1 mg/kg IV): 11.6 mL/min/kg | Vd ([1]; Mouse CD-1, 1 mg/kg IV): 1.4 L/kg | AUC ([1]; Mouse CD-1, 10 mg/kg PO): 5.2 µM·h | bioavailability ([1]; Mouse CD-1, 10 mg/kg PO): 33% | AUC ([1]; Rat Sprague-Dawley, 1 mg/kg IV): 0.18 µM·h | clearance ([1]; Rat Sprague-Dawley, 1 mg/kg IV): 99.5 mL/min/kg | Vd ([1]; Rat Sprague-Dawley, 1 mg/kg IV): 32 L/kg | AUC [1, 9]: 0.69 µM·h | bioavailability [1, 9]: 32% | AUC [1, 10]: 1.62 µM·h | bioavailability [1, 10]: 7% | AUC [7, 12]: 23.2 µM·h | Cmax [7, 12]: 2.2 µM | AUC [7, 13]: 21.1 µM·h | Cmax [7, 13]: 1.7 µM | AUC [7, 14]: 51.3 µM·h | Cmax [7, 14]: 3.8 µM | AUC [7, 15]: 49.8 µM·h | Cmax [7, 15]: 3.4 µM | AUC [7, 16]: 67 µM·h | Cmax [7, 16]: 5.1 µM | AUC [7, 17]: 72.2 µM·h | Cmax [7, 17]: 5.2 µM | DC50 [8]: 2 nM
SMILES: CN1CCN([C@H]2CCCN(c3cnc(C(N)=O)c(Nc4ccc(C5CCN(CC6CCN(c7ccc(C(=O)NC8CCC(=O)NC8=O)nc7)CC6)CC5)cc4)n3)C2)C1=O (some centres unmarked) [Compound 130]
% BTK Remaining in B cells ([5]; 10 mg/kg PO daily, 1 day of dosing): 6% | % BTK Remaining in B cells ([5]; 10 mg/kg PO daily, 14 days of dosing): 5% | % BTK Remaining in B cells ([5]; 30 mg/kg PO daily, 1 day of dosing): 3% | % BTK Remaining in B cells ([5]; 30 mg/kg PO daily, 14 days of dosing): 5% | % BTK Remaining in B cells ([5]; 100 mg/kg PO daily, 1 day of dosing): 4% | % BTK Remaining in B cells ([5]; 100 mg/kg PO daily, 14 days of dosing): 4% | % BTK Remaining ([6]; 1 mg/kg IV, 2 h): 8% | % BTK Remaining ([6]; 1 mg/kg IV, 4 h): 6% | % BTK Remaining ([6]; 1 mg/kg IV, 8 h): 5% | % BTK Remaining ([6]; 1 mg/kg IV, 24 h): 13% | % BTK Remaining ([6]; 10 mg/kg PO, 2 h): 4% | % BTK Remaining ([6]; 10 mg/kg PO, 4 h): <1% | % BTK Remaining ([6]; 10 mg/kg PO, 8 h): <3% | % BTK Remaining ([6]; 10 mg/kg PO, 24 h): <1% | % BTK Remaining ([6]; 30 mg/kg PO, 2 h): 6% | % BTK Remaining ([6]; 30 mg/kg PO, 4 h): <1% | % BTK Remaining ([6]; 30 mg/kg PO, 8 h): <1% | % BTK Remaining ([6]; 30 mg/kg PO, 24 h): 1% | IMiD activity [2]: did not have IMiD activity | EC50 [3]: 4.83 nM | EMAX (% viable cells) [3]: 33%

AUC ([1]; Mouse Balb/c, 1 mg/kg IV): 3.96 µM·h | clearance ([1]; Mouse Balb/c, 1 mg/kg IV): 5.1 mL/min/kg | Vd ([1]; Mouse Balb/c, 1 mg/kg IV): 0.68 L/kg | AUC ([1]; Mouse Balb/c, 10 mg/kg PO): 2.9 µM·h | bioavailability ([1]; Mouse Balb/c, 10 mg/kg PO): 7%
SMILES: CN1CCN([C@@H]2CCCN(c3cnc(C(N)=O)c(Nc4ccc(C5CCN(CC6CCN(c7ccc8c(=O)n(C9CCC(=O)NC9=O)ccc8c7)CC6)CC5)cc4)n3)C2)C1=O (some centres unmarked) [Compound 72]
IMiD activity [2]: did not have IMiD activity | effects on CRBN neo-substrate levels [2]: does not effect | EC50 [3]: 1.16 nM | EMAX (% viable cells) [3]: 21%
